Experimental data published in patent publication US12295959B2 (priority 2021, dated 2025).

What was measured:
rat cortical neurons = experiment: Neurite outgrowth assay; assay type: cell-based; design: key: A: Statistically significant mean increase as a percent of DMSO control at 10 μM or less.; B: No statistically significant mean increase as a percent of DMSO control at 10 μM or less; conditions: 72 h, 10 μM or less, vs DMSO control
Description: Neurite Outgrowth Assay. Changes in the pattern of neurite outgrowth have been implicated in psychiatric and neurodegenerative disorders as well as traumatic injuries. The discovery of new compounds that can positively affect neuritogenesis are important for developing new therapeutics for neurological diseases. Measurement of neurite outgrowth of rat cortical neurons using an automated image-based assay was used to determine the neuroplastic effects of the compounds of the present invention. The neurite outgrowth assay was performed at Neurofit SAS (France) as described below.
Pregnant Wistar rats (Janvier; France) were used for the study. They were delivered 6 days before their use. Upon arrival at Neurofit animal facility, they were housed one per cage and maintained in a room with controlled temperature (21-22° C.) and a reversed light-dark cycle (12 h/12 h; lights on: 17:30-05:30; lights off: 05:30-17:30) with food and water available ad libitum.
Female Wistar rats of 17 days gestation were killed by cervical dislocation and the fetuses were removed from the uterus. Their brains were placed in ice-cold medium of Leibovitz (L15, Gibco, Fisher bioblock, France). Cortices were dissected and meninges were carefully removed. The cortical neurons were dissociated by trypsinization for 30 min at 37° C. (trypsin-EDTA, Gibco) in presence of 0.1 mg/ml DNAse I (Roche, France). The reaction was stopped by addition of Dulbecco's Modified Eagle Medium (DMEM; Gibco) with 10% of fetal bovine serum (FBS; Gibco). The suspension was triturated with a 10-ml pipette and using a needle syringe 21G and centrifuged at 350×g for 10 min at room temperature. The pellet of dissociated cells was resuspended in a medium consisting of Neurobasal (Gibco) supplemented with 2% B27 supplement (Gibco), 0.5 mM L-Glutamine (Gibco), an antibiotic-antimicotic mixture. Viable cells were counted in a Neubauer cytometer using the trypan blue exclusion test (Sigma). Cells were seeded at a density of 10000 cells per well in 96-well plate (Costar) precoated with poly-L-lysine. Test compound at different concentrations were added to the cultures. Donepezil (positive control) was tested at 250 nM.
After 72 h (3 days) of plating, cultures were fixed with paraformaldehyde in PBS (4%, Sigma) for 30 min at 4° C. Then, cells were successively permeabilized with 0.1% Triton X100 for 30 min, saturated with PBS containing 3% of BSA and were incubated 1 h with anti-beta III tubulin antibody (Sigma) at 1/10 000 in PBS containing 0.5% of BSA. Cells were washed three times with PBS containing 0.5% of BSA, and they were incubated 1 h with goat anti-mouse antibody coupled with AF488 (Invitrogen A 11001) diluted at 1/1000 in PBS containing 0.5% of BSA. Finally, nuclei were staining with DAPI 1 mg/ml at 1/1000 in PBS containing 0.5% of BSA. After rinsing with PBS, the plate was filmed and neurite networks were examined and analyzed using High-Content Screening (CellInsight, Thermo Scientific). The average number of neurites per neuron and the average total length of neurites per neuron were the main parameters analyzed. Analysis of data was performed using analysis of variance (ANOVA). The Fisher's Protected Least Significant Difference test was used for multiple comparisons. A p value≤0.05 was considered significant. The software used is StatView 5.0 from SAS Institut.

5-HT2A [1] = target: T1, 5-HT2A (Homo sapiens, UniProt P28223); experiment: Serotonin 5-HT2A in vitro cellular IPOne agonism assay (HTRF); assay type: cell-based; design: host or cells: CHO-K1; conditions: CHO-K1 cells, agonist mode
Description: Serotonin 5-HT2A In Vitro Cellular IPOne Agonism Assay. The 5-HT2A IPOne HTRF assay was performed at Epics Therapeutics S.A. (Belgium, FAST-0505I) using conventional methods. Briefly, CHO-K1 cells expressing human recombinant 5-HT2A receptor grown to mid-log phase in culture media without antibiotics were detached with PBS-EDTA, centrifuged, and resuspended in medium without antibiotics buffer. 20,000 cells were distributed in a 96 well plate and incubated overnight at 37° C. with 5% CO2.
For agonist testing, the medium was removed and 20 μl of assay buffer plus 20 μl of test compound or reference agonist are added in each well. The plate was incubated for 60 min. at 37° C. with 5% CO2.
(§1) After addition of the lysis buffer containing IP1-d2 and anti-IP1 cryptate detection reagents, plates were incubated 1-hour at room temperature, and fluorescence ratios were measured according to the manufacturer specification, with the HTRF kit.

5-HT2A [2] = target: T1, 5-HT2A; experiment: Serotonin 5-HT2A in vitro cellular IPOne antagonism assay; assay type: cell-based; design: host or cells: CHO-K1; conditions: CHO-K1 cells, antagonist mode, reference agonist a-Me-5HT
Description: Serotonin 5-HT2A and 5-HT2C In Vitro Cellular IPOne Antagonism Assay. The 5-HT2A IPOne HTRF assay was performed at Epics Therapeutics S.A. (Belgium, FAST-0505I) in antagonism mode using conventional methods. Briefly, CHO-K1 cells expressing human recombinant 5-HT2A receptor grown to mid-log phase in culture media without antibiotics were detached with PBS-EDTA, centrifuged, and resuspended in medium without antibiotics buffer. 20,000 cells were distributed in a 96 well plate and incubated overnight at 37° C. with 5% CO2.
For antagonist testing, a reference agonist a-Me-5HT was added and fluorescence signal monitored for several minutes, followed by addition of 20 μl of assay buffer plus 20 μl of test compound or reference antagonist ketanserin, in each well. The plate was incubated for 60 min. at 37° C. with 5% CO2.
as §1

5-HT2A [3] = target: T1, 5-HT2A; experiment: Serotonin 5-HT2A in vitro radioligand binding competition assay ([3H]-DOI); design: purchased Epics Therapeutics S.A. (Belgium) FAST-0505B; host or cells: membrane extracts; conditions: [3H]-DOI competition, membrane extracts
Description: Serotonin 5-HT2A In Vitro Radioligand Binding Competition Assay. The 5-HT2A radioligand binding competition assay was performed at Epics Therapeutics S.A. (Belgium, FAST-0505B) using conventional methods. Briefly, competition binding was performed in duplicate in the wells of a 96 well plate (Master Block, Greiner, 786201) containing binding buffer (optimized for each receptor), membrane extracts (amount of protein/well optimized for each receptor), radiotracer [^3H]-DOI (final concentration optimized for each receptor) and test compound. Nonspecific binding was determined by co-incubation with 200-fold excess of cold competitor. The samples were incubated in a final volume of 0.1 ml at a temperature and for a duration optimized for each receptor and then filtered over filter plates. Filters were washed six times with 0.5 ml of ice-cold washing buffer (optimized for each receptor) and 50 μl of Microscint 20 (Packard) was added in each well. The plates were incubated 15 min on an orbital shaker and then counted with a TopCount™ for 1 min/well.

T1 sequence (P28223 whole entry): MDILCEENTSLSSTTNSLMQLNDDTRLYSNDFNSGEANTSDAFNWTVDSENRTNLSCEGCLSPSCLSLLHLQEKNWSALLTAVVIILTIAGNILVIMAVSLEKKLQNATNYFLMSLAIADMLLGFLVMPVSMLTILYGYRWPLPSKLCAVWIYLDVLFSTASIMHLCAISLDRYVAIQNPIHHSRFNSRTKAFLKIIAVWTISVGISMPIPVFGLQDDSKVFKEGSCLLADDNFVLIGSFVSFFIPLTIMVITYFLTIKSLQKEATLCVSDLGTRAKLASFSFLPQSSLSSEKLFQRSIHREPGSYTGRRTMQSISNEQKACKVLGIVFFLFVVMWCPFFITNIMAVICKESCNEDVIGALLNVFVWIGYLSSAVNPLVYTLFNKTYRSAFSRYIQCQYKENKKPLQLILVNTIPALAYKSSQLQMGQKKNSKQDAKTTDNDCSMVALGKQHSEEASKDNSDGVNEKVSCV

Row | SMILES | Increase in Neurite Branching (rat cortical neurons) | Increase in Neurite Length (rat cortical neurons) | Increase in Neurite Number (rat cortical neurons) | EC50 (5-HT2A [1]) | IC50 (5-HT2A [2]) | IC50 (5-HT2A [3])
1 | CN1CCc2[nH]c3cc(OCc4ccc(F)cc4)ccc3c2CC1 [Compound 8, 8-((4-fluorobenzyl)oxy)-3-methyl-1,2,3,4,5,6-hexahydroazepino[4,5-b]indole] | A | A | A | > 10000 nM | 10 to 100 nM | 101 to 1000 nM
2 | Cn1c2c(c3ccc(OCc4ccc(F)cc4)cc31)CCNCC2 [Compound 9, 8-((4-fluorobenzyl)oxy)-6-methyl-1,2,3,4,5,6-hexahydroazepino[4,5-b]indole] | B | B | B | > 10000 nM | 101 to 1000 nM | 101 to 1000 nM
3 | CN1CCc2c(n(C)c3cc(OCc4ccc(F)cc4)ccc23)CC1 [Compound 10, 8-((4-fluorobenzyl)oxy)-3,6-dimethyl-1,2,3,4,5,6-hexahydroazepino[4,5-b]indole] | – | B | – | > 10000 nM | 10 to 100 nM | 101 to 1000 nM
4 | CN1CCc2[nH]c3cc(Oc4ccccc4)ccc3c2CC1 [Compound 12, 3-methyl-8-phenoxy-1,2,3,4,5,6-hexahydroazepino[4,5-b]indole] | A | A | A | > 10000 nM | 101 to 1000 nM | 101 to 1000 nM
5 | CN1CCc2c(n(C)c3cc(Oc4ccccc4)ccc23)CC1 [Compound 14, 3,6-dimethyl-8-phenoxy-1,2,3,4,5,6-hexahydroazepino[4,5-b]indole] | B | A | B | > 10000 nM | 1000 to 10000 nM | 1000 to 10000 nM
6 | CN1CCc2[nH]c3cc(Oc4ccc(F)cc4)ccc3c2CC1 [Compound 16, 8-(4-fluorophenoxy)-3-methyl-1,2,3,4,5,6-hexahydroazepino[4,5-b]indole] | A | A | B | > 10000 nM | 101 to 1000 nM | 101 to 1000 nM
7 | CN1CCc2c(n(C)c3cc(Oc4ccc(F)cc4)ccc23)CC1 [Compound 18, 8-(4-fluorophenoxy)-3,6-dimethyl-1,2,3,4,5,6-hexahydroazepino[4,5-b]indole] | A | A | A | > 10000 nM | 101 to 1000 nM | 101 to 1000 nM
8 | Cn1c2c(c3c(OCc4ccccc4)cccc31)CCNCC2 [Compound 19, 10-(benzyloxy)-6-methyl-1,2,3,4,5,6-hexahydroazepino[4,5-b]indole] | B | B | B | 1000 to 10000 nM | 101 to 1000 nM | 101 to 1000 nM
9 | CN1CCc2[nH]c3cccc(Oc4ccc(F)cc4)c3c2CC1 [Compound 22, 10-(4-fluorophenoxy)-3-methyl-1,2,3,4,5,6-hexahydroazepino[4,5-b]indole] | A | A | A | > 10000 nM | 10 to 100 nM | 10 to 100 nM
10 | CN1CCc2c(n(C)c3cccc(Oc4ccc(F)cc4)c23)CC1 [Compound 24, 10-(4-fluorophenoxy)-3,6-dimethyl-1,2,3,4,5,6-hexahydroazepino[4,5-b]indole] | B | A | B | > 10000 nM | 10 to 100 nM | 10 to 100 nM
11 | c1ccc(COc2ccc3[nH]c4c(c3c2)CCNCC4)cc1 [Compound 25, 9-(benzyloxy)-1,2,3,4,5,6-hexahydroazepino[4,5-b]indole] | – | A | – | > 10000 nM | 101 to 1000 nM | 101 to 1000 nM
12 | CN1CCc2[nH]c3ccc(OCc4ccccc4)cc3c2CC1 [Compound 26, 9-(benzyloxy)-3-methyl-1,2,3,4,5,6-hexahydroazepino[4,5-b]indole] | A | A | A | > 10000 nM | 101 to 1000 nM | 101 to 1000 nM
13 | CN1CCc2[nH]c3c(OCc4ccccc4)cccc3c2CC1 [Compound 28, 7-(benzyloxy)-3-methyl-1,2,3,4,5,6-hexahydroazepino[4,5-b]indole] | A | A | A | > 10000 nM | 10 to 100 nM | 10 to 100 nM
